Tests used:
human ANO1 = molecular target: T1, human ANO1 (Homo sapiens, UniProt Q5XXA6); assay: Apical membrane current in FRT cells expressing human ANO1; assay type: cell-based; settings: 30 μM added 10 min prior to ANO1 activation by 100 μM ATP
T1 construct: expressed in transfected cells; host or cells: FRT cells (FRT-ANO1)
T1 sequence (Q5XXA6 1-986): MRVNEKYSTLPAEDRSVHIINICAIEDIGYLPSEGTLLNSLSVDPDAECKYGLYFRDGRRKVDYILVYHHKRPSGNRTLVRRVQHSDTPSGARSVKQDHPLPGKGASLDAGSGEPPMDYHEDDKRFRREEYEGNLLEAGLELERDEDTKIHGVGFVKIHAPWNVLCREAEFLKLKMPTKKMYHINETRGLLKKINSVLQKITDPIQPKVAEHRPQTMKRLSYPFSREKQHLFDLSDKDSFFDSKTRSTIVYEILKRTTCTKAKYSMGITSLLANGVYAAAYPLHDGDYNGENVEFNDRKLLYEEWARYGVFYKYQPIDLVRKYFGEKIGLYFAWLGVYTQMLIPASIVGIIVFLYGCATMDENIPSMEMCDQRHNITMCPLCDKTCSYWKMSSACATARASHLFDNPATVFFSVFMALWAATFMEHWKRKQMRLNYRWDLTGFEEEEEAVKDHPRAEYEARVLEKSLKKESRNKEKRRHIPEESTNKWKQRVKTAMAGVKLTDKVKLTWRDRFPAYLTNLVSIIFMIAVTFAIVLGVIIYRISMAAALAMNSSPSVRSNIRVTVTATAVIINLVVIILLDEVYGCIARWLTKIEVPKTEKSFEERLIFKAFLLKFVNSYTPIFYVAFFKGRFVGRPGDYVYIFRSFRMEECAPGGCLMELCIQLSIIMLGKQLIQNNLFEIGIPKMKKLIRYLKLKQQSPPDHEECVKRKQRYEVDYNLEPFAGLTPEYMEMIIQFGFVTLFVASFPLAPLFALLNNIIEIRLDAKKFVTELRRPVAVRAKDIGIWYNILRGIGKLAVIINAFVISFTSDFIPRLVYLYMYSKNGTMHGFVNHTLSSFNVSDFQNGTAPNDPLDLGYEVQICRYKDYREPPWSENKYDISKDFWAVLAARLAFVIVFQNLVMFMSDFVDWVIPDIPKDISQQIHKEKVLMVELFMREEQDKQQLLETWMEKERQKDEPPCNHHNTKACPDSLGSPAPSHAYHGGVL

[1] = system: conjunctival epithelial (ConjE) cells; assay: MTS cell viability assay in ConjE cells; assay type: cell-based, human; settings: 48 h; isorhamnetin 30 μM, Triton X-100 0.01%
Protocol: Immortalized human CorE [47] and immortalized human ConjE (Innoprot, Bizkaia, Spain) cells were plated on 96-well microplates. After 24 h incubation, cells were treated with 30 μM isorhamnetin or 0.01% Triton X-100 and then they were incubated for two days. An equal amount of DMSO was added to the control. The culture medium and the compounds were changed every 12 h. To assess cell proliferation, after 48 h of incubation with the compound, the cells were reincubated with MTS for 1 h. The soluble formazan produced by cellular reduction of MTS was quantified by measuring the absorbance at 490 nm with Infinite M200 (Tecan, Grödig, Austria) microplate reader. MTS assay was done using CellTiter 96 AQueous One Solution Cell Proliferation Assay kit (Promega, Madison, WI, USA).

[2] = system: scopolamine-induced dry eye mice; assay: Scopolamine-induced dry eye mouse model (corneal fluorescein staining, tear volume); assay type: in vivo; settings: 30 µM, three times a day for 10 days
Protocol: Tear volume was measured using phenol red threads (Zone-Quick, Oasis Medical, Glendora, CA, USA) by placing them in the lateral canthi of normal CD-1 or dry eye model-treated BL6 mice for 10 s using forceps. Tear volume was measured using a Vernier caliper as the length of thread wetting under a microscope. For normal CD-1 mice, serial measurements were done to evaluate compound pharmacodynamics compared to the vehicle after topical application of a single, 2.5-μL drop of compound formulations containing 20 μM forskolin, 30 μM isorhamnetin, or 20 μM CFTRinh-172 in PBS with 0.1% DMSO.
To assess corneal epithelial disruption, 5 μL of fluorescein dye (1%) were applied to the ocular surface of mice. Photographs of the eye were taken with a digital camera. Each cornea was scored from 0 to 5 according to the Oxford scheme.
Eight-week-old C57BL/6 mice were used for this experiment. Experimental dry eye was induced by subcutaneous injection of 0.5 mg/100 μL scopolamine hydrobromide (Sigma-Aldrich, St. Louis, MO, USA) three times a day with a standard desiccating environment created by placing the mice in a chamber with a continuous air flow (15 L/min) in a room at 25 °C with an ambient humidity of 12%. […]

[3] = system: pro-inflammatory cytokine mRNA expression; assay: Real-time PCR of pro-inflammatory cytokines in cornea and conjunctiva of dry eye mice; assay type: in vivo, mouse
Protocol: Eight-week-old C57BL/6 mice were used for this experiment. Experimental dry eye was induced by subcutaneous injection of 0.5 mg/100 μL scopolamine hydrobromide (Sigma-Aldrich, St. Louis, MO, USA) three times a day with a standard desiccating environment created by placing the mice in a chamber with a continuous air flow (15 L/min) in a room at 25 °C with an ambient humidity of 12%. Fourteen days after the initiation of experimental dry eye, the mice were treated or not with 5-μL drop of ophthalmic formulation (30 μM isorhamnetin in PBS with 0.1% DMSO) or vehicle three times a day. Eight days after the initiation of the formulation treatment, scopolamine injection was stopped. Ten days after the initiation of the formulation treatment, measurement of tear volume, corneal disruption, and relative mRNA level was performed.
The mRNA expressions of IL-1β, IL-6, IL-8, TNF-α, IFN-γ, and MMP-9 in cornea and conjunctiva of the dry eye model-treated mice were measured by qPCR. RNA was isolated using TRIzol reagent (Invitrogen, Carlsbad, CA, USA), and 1 μg of RNA was used to synthesize complementary DNA (cDNA) using RNA to cDNA EcoDryTM premix (TaKaRa, Shiga, Japan) according to the manufacturer’s protocol. The relative mRNA levels were measured in ViiA7 (Applied Biosystems, Foster City, CA, USA) using SYBR Green PCR Master Mix (Applied Biosystems). The primer sequences used were as follows: GAPDH, sense (5-[…]-3) and antisense (5-[…]-3), size of PCR product 155 base pairs; IL-1β, sense (5-[…]-3) and antisense (5-[…]-3), size of PCR product 199 base pairs; IL-6, sense (5-[…]-3) and antisense (5-[…]-3), size of PCR product 131 base pairs; IL-8, sense (5-[…]-3) and antisense (5-[…]-3), size of PCR product 190 base pairs; TNF-α, sense (5-[…]-3) and antisense (5-[…]-3), size of PCR product 166 base pairs; IFN-γ, sense (5-[…]-3) and antisense (5- […]-3), size of PCR product 156 base pairs; and MMP-9, sense (5-[…]-3) and antisense (5-[…]-3), size of PCR product 190 base pairs. The mRNA levels of the cytokines and MMP-9 were normalized to GAPDH levels and the fold-change in gene expression was determined by using 2^-ΔΔCT method.

[4] = cornea of the dry eye mouse model

Compound: COc1cc(-c2oc3cc(O)cc(O)c3c(=O)c2O)ccc1O [isorhamnetin]
- ANO1 function (apical membrane current) (human ANO1): did not alter
- cell viability (MTS), ConjE cells [1]: did not affect the cell viability
- corneal erosion (fluorescein staining) [2]: significantly reduced
- tear volume in dry eye mice [2]: increased
- IL-1β expression [3, 4]: significantly reduced
- IL-8 expression [3, 4]: significantly reduced
- TNF-α expression [3, 4]: significantly reduced
- mRNA expression of cytokines in cornea and conjunctiva ([3]; dry eye mice treated with isorhamnetin for 10 days): strongly reduced

— article PMC8070004, “Isorhamnetin Ameliorates Dry Eye Disease via CFTR Activation in Mice” (International Journal of Molecular Sciences, 2021)
